The source of these data is patent US20260356819A1, “OXOISOINDOLINYL-SUBSTITUTED […] DERIVATIVE AND USE THEREOF” (GLUETACS THERAPEUTICS (SHANGHAI) CO., LTD., priority 2023, published 2026).

Common to all, as to assay type: cell-based
Holding throughout (details): compounds at 50 nM and 500 nM

One experiment addresses T1, IKZF3 (Homo sapiens, UniProt Q96SW2+Q9UKT9).
T1 construct: The supernatant was aspirated as the extracted total cell protein; endogenous in cells; host or cells: human peripheral blood mononuclear cells (hPBMCs)
As to the kind of experiment: Western blot degradation of IKZF3 in hPBMCs (24 h). Summed up: (§1)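 Degradation in primary human PBMCs after 24 h compound exposure at 50 and 500 nM. Western blot band intensities, normalised to an internal control protein, expressed as % protein remaining relative to DMSO.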

In a further experiment the target is T2, WEE1 (Homo sapiens, UniProt P30291+Q96SW2).
T2 construct: The supernatant was aspirated as the extracted total cell protein; endogenous in cells; host or cells: human peripheral blood mononuclear cells (hPBMCs)
T2 sequence (P30291 whole entry): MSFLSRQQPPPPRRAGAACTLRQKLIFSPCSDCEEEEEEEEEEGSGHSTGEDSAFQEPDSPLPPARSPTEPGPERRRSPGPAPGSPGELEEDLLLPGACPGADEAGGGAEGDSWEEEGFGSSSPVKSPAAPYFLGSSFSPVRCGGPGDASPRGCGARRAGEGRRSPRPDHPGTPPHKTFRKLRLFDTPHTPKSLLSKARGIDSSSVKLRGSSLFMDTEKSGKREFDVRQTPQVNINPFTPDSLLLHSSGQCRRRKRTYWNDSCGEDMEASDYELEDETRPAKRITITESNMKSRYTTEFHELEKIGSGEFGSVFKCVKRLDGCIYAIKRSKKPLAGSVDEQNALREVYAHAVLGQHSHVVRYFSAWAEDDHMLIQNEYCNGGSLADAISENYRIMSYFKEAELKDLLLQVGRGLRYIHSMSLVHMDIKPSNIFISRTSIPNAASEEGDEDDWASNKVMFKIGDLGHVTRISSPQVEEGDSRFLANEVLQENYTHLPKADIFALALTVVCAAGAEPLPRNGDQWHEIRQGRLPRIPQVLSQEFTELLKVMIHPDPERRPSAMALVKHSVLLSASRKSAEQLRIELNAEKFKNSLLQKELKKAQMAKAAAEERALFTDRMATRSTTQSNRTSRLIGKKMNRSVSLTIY
T2 sequence (Q96SW2 whole entry): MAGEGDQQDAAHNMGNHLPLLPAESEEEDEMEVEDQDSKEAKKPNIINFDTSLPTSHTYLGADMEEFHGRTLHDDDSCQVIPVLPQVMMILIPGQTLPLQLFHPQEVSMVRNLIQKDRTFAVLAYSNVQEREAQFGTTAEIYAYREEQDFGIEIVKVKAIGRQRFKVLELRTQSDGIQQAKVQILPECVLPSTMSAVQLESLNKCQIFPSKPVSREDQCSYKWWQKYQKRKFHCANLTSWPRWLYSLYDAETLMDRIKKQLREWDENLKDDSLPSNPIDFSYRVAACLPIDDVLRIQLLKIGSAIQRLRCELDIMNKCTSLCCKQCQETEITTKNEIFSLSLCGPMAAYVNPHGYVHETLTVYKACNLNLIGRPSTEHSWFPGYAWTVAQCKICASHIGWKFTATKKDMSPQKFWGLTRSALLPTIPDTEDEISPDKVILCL
T2 sequence (Q16531 whole entry partner): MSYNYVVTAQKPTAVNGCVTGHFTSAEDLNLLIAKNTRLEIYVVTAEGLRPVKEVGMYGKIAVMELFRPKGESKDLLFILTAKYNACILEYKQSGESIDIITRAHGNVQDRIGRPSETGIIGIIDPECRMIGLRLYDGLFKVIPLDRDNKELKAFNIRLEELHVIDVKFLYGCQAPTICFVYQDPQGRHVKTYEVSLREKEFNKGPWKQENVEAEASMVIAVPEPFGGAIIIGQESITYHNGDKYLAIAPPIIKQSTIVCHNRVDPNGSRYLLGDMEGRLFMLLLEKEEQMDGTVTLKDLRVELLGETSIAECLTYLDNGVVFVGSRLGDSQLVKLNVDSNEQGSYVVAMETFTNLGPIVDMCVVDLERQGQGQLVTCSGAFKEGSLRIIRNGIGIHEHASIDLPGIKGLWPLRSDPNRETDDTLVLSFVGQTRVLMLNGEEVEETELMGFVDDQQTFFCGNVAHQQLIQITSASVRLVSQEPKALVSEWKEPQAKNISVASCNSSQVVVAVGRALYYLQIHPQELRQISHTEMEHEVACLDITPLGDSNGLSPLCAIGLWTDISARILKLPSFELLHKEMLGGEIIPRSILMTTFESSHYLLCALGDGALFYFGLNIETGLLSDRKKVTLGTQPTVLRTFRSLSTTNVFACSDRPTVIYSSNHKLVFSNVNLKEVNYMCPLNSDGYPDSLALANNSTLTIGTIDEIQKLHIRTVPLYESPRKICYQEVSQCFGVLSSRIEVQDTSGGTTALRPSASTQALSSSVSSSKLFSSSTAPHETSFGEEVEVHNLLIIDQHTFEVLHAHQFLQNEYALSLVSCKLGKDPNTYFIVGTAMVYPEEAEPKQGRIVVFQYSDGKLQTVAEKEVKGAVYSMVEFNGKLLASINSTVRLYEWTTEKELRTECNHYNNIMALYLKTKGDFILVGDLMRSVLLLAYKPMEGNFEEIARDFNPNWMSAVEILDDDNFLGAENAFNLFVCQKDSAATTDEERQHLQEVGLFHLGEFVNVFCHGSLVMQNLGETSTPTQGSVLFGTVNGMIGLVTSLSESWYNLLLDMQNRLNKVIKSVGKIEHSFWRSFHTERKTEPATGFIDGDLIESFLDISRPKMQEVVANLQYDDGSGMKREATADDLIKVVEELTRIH
As to the kind of experiment: Western blot degradation of WEE1 in hPBMCs (24 h). Summed up:
as §1
On the technique in general: Immunoblotting shows a protein as a band on a membrane.

A further experiment has as its target T3, GSPT1 (Homo sapiens, UniProt P15170+Q96SW2).
T3 construct: The supernatant was aspirated as the extracted total cell protein; endogenous in cells; host or cells: human peripheral blood mononuclear cells (hPBMCs)
As to the kind of experiment: Western blot degradation of GSPT1 in hPBMCs (24 h). In outline: as §1

A further experiment deals with T4, IKZF2 (Homo sapiens, UniProt Q96SW2+Q9UKS7).
T4 construct: The supernatant was aspirated as the extracted total cell protein; endogenous in cells; host or cells: human peripheral blood mononuclear cells (hPBMCs)
T4 sequence (Q9UKS7 whole entry): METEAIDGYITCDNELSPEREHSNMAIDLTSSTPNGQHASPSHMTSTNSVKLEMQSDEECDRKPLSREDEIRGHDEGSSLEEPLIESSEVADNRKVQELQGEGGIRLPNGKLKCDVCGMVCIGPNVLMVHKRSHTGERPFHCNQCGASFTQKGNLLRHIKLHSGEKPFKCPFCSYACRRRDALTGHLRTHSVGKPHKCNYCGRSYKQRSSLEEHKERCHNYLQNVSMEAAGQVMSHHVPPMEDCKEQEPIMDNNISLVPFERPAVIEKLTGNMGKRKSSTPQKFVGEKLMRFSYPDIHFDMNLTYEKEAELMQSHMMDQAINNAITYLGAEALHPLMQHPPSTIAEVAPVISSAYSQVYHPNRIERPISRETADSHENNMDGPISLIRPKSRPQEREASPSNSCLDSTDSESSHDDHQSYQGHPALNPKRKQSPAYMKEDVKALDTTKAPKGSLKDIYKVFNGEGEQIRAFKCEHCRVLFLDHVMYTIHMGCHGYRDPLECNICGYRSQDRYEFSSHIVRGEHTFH
T4 sequence (Q96SW2 whole entry): as the sequence (Q96SW2 whole entry) above
T4 sequence (Q16531 whole entry partner): as the sequence (Q16531 whole entry partner) above
Kind of experiment: Western blot degradation of IKZF2 in hPBMCs (24 h). Summed up: as §1

A further experiment has as its target T5, IKZF1 (Homo sapiens, UniProt Q13422+Q96SW2).
T5 construct: The supernatant was aspirated as the extracted total cell protein; endogenous in cells; host or cells: human peripheral blood mononuclear cells (hPBMCs)
As to the kind of experiment: Western blot degradation of IKZF1 in hPBMCs (24 h). Summed up: as §1

The target of a further experiment is T6, CK1α (Homo sapiens, UniProt P48729+Q96SW2).
T6 construct: The supernatant was aspirated as the extracted total cell protein; endogenous in cells; host or cells: human peripheral blood mononuclear cells (hPBMCs)
T6 sequence (P48729 whole entry): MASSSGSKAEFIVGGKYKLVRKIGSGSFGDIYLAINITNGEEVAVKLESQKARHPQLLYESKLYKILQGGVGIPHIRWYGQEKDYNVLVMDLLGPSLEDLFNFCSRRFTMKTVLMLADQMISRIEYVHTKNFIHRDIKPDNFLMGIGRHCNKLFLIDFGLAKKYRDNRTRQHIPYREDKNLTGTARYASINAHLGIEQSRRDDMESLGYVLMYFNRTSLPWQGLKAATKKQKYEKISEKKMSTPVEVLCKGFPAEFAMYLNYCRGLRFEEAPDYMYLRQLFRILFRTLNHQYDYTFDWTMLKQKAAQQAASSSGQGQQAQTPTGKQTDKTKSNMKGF
T6 sequence (Q96SW2 whole entry): as the sequence (Q96SW2 whole entry) above
T6 sequence (Q16531 whole entry partner): as the sequence (Q16531 whole entry partner) above
As to the kind of experiment: Western blot degradation of CK1α in hPBMCs (24 h). In outline: as §1

T3 sequence (P15170 whole entry): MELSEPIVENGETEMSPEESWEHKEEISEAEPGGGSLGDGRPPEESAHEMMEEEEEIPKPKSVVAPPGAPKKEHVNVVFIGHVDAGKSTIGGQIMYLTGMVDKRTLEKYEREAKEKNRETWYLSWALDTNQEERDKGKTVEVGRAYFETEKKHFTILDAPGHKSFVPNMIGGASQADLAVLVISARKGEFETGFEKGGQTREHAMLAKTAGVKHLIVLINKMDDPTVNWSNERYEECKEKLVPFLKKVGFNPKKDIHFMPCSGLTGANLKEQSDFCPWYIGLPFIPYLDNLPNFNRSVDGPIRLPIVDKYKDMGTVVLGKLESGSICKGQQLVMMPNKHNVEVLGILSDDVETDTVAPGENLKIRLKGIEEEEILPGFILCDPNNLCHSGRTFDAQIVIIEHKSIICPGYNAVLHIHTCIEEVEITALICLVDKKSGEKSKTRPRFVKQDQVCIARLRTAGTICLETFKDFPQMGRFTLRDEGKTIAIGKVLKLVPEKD
T3 sequence (Q96SW2 whole entry): as the sequence (Q96SW2 whole entry) above
T3 sequence (Q16531 whole entry partner): as the sequence (Q16531 whole entry partner) above
T5 sequence (Q13422 whole entry): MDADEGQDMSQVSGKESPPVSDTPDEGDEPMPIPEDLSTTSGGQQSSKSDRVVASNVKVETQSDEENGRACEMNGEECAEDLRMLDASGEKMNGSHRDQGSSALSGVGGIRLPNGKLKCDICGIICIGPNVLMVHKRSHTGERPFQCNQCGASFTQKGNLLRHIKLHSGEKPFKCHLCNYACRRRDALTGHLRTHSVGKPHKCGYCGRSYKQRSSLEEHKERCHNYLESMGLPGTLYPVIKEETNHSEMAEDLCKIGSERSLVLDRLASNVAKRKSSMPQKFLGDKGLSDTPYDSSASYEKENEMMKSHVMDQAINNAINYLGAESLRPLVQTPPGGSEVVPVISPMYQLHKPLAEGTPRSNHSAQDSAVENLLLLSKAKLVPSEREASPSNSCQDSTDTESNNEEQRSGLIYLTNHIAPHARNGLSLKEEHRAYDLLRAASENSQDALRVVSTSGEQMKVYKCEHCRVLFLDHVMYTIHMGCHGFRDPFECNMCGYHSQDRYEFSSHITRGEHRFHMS
T5 sequence (Q96SW2 whole entry): as the sequence (Q96SW2 whole entry) above
T5 sequence (Q16531 whole entry partner): as the sequence (Q16531 whole entry partner) above

Turning to `COc1ccc(N2CCN(Cc3ccc4c(c3)C(=O)N(N3CCC(=O)NC3=O)C4=O)CC2)cc1` [GT-06728, 2-(2,4-dioxotetrahydropyrimidin-1(2H)-yl)-5-((4-(4-methoxyphenyl)piperazin-1-yl)methyl)isoindoline-1,3-dione], the “IKZF3 substrate protein remaining %” value at IKZF3 was “A (0% ≤ substrate protein remaining % ≤80%)”. Moreover, on WEE1, the “WEE1 substrate protein remaining %” value is reported as “B (80%< substrate protein remaining % ≤100%)”. Moreover, the “GSPT1 substrate protein remaining %” value at GSPT1 was “B (80%< substrate protein remaining % ≤100%)”. Besides, on IKZF2, the “IKZF2 substrate protein remaining %” value is recorded as “A (0% ≤ substrate protein remaining % ≤80%)”. The “IKZF1 substrate protein remaining %” value on IKZF1 is recorded as “B (80%< substrate protein remaining % ≤100%)”. Moreover, the “CK1α substrate protein remaining %” value at CK1α is on record as “A (0% ≤ substrate protein remaining % ≤80%)”.

As to `COc1ccc(N2CCN(Cc3ccc4c(c3)CN(N3CCC(=O)NC3=O)C4=O)CC2)cc1` [GT-06767, 1-(5-((4-(4-methoxyphenyl)piperazin-1-yl)methyl)-1-oxoisoindolin-2-yl)dihydropyrimidine-2,4(1H,3H)-dione], the “IKZF3 substrate protein remaining %” value at IKZF3 was “A (0% ≤ substrate protein remaining % ≤80%)”. On WEE1, the “WEE1 substrate protein remaining %” value is reported as “A (0% ≤ substrate protein remaining % ≤80%)”. For the same compound, the “GSPT1 substrate protein remaining %” value on GSPT1 is listed as “A (0% ≤ substrate protein remaining % ≤80%)”. Also, at IKZF2, the “IKZF2 substrate protein remaining %” value was “A (0% ≤ substrate protein remaining % ≤80%)”. Also, at IKZF1, the “IKZF1 substrate protein remaining %” value is recorded as “A (0% ≤ substrate protein remaining % ≤80%)”. Besides, the “CK1α substrate protein remaining %” value on CK1α is recorded as “A (0% ≤ substrate protein remaining % ≤80%)”.

For `O=C1CCN(N2Cc3cc(CN4CCN(c5ccc(Br)cc5)CC4)ccc3C2=O)C(=O)N1` [GT-06768, 1-(5-((4-(4-bromophenyl)piperazin-1-yl)methyl)-1-oxoisoindolin-2-yl)dihydropyrimidine-2,4(1H,3H)-dione], the “IKZF3 substrate protein remaining %” value on IKZF3 is given as “A (0% ≤ substrate protein remaining % ≤80%)”. In addition, the “WEE1 substrate protein remaining %” value on WEE1 is “A (0% ≤ substrate protein remaining % ≤80%)”. Also, the “GSPT1 substrate protein remaining %” value on GSPT1 is “A (0% ≤ substrate protein remaining % ≤80%)”. Moreover, the “IKZF2 substrate protein remaining %” value on IKZF2 is “B (80%< substrate protein remaining % ≤100%)”. Moreover, the “IKZF1 substrate protein remaining %” value on IKZF1 is reported as “B (80%< substrate protein remaining % ≤100%)”. In addition, at CK1α, the “CK1α substrate protein remaining %” value is “A (0% ≤ substrate protein remaining % ≤80%)”.

Regarding `Cc1ccccc1N1CCN(Cc2ccc3c(c2)CN(N2CCC(=O)NC2=O)C3=O)CC1` [GT-06769, 1-(1-oxo-5-((4-(o-tolyl)piperazin-1-yl)methyl)isoindolin-2-yl)dihydropyrimidine-2,4(1H,3H)-dione], the “IKZF3 substrate protein remaining %” value on IKZF3 is “A (0% ≤ substrate protein remaining % ≤80%)”. For the same compound, the “WEE1 substrate protein remaining %” value on WEE1 is “A (0% ≤ substrate protein remaining % ≤80%)”. Moreover, the “GSPT1 substrate protein remaining %” value on GSPT1 is reported as “A (0% ≤ substrate protein remaining % ≤80%)”. In addition, the “IKZF2 substrate protein remaining %” value at IKZF2 was “A (0% ≤ substrate protein remaining % ≤80%)”. Moreover, on IKZF1, the “IKZF1 substrate protein remaining %” value is listed as “B (80%< substrate protein remaining % ≤100%)”. The “CK1α substrate protein remaining %” value on CK1α is “A (0% ≤ substrate protein remaining % ≤80%)”.

As to `Cc1ccc(N2CCN(Cc3ccc4c(c3)CN(N3CCC(=O)NC3=O)C4=O)CC2)cc1` [GT-06771, 1-(1-oxo-5-((4-(p-tolyl)piperazin-1-yl)methyl)isoindolin-2-yl)dihydropyrimidine-2,4(1H,3H)-dione], the “IKZF3 substrate protein remaining %” value at IKZF3 is on record as “A (0% ≤ substrate protein remaining % ≤80%)”. The “WEE1 substrate protein remaining %” value at WEE1 is reported as “A (0% ≤ substrate protein remaining % ≤80%)”. The “GSPT1 substrate protein remaining %” value on GSPT1 is listed as “A (0% ≤ substrate protein remaining % ≤80%)”. The “IKZF2 substrate protein remaining %” value at IKZF2 was “A (0% ≤ substrate protein remaining % ≤80%)”. The “IKZF1 substrate protein remaining %” value on IKZF1 was “B (80%< substrate protein remaining % ≤100%)”. Moreover, the “CK1α substrate protein remaining %” value at CK1α was “A (0% ≤ substrate protein remaining % ≤80%)”.

On to `O=C1CCN(N2Cc3cc(CN4CCN(c5ccc(Cl)cc5Cl)CC4)ccc3C2=O)C(=O)N1` [GT-06772, 1-(5-((4-(2,4-dichlorophenyl)piperazin-1-yl)methyl)-1-oxoisoindolin-2-yl)dihydropyrimidine-2,4(1H,3H)-dione], for which the “IKZF3 substrate protein remaining %” value on IKZF3 is given as “A (0% ≤ substrate protein remaining % ≤80%)”. Also, the “WEE1 substrate protein remaining %” value on WEE1 is given as “A (0% ≤ substrate protein remaining % ≤80%)”. Moreover, on GSPT1, the “GSPT1 substrate protein remaining %” value is given as “A (0% ≤ substrate protein remaining % ≤80%)”. In addition, the “IKZF2 substrate protein remaining %” value on IKZF2 is on record as “A (0% ≤ substrate protein remaining % ≤80%)”. The “IKZF1 substrate protein remaining %” value on IKZF1 is reported as “B (80%< substrate protein remaining % ≤100%)”. Also, the “CK1α substrate protein remaining %” value on CK1α is listed as “A (0% ≤ substrate protein remaining % ≤80%)”.

Regarding `O=C1CCN(N2Cc3cc(CN4CCN(c5c(Cl)cccc5Cl)CC4)ccc3C2=O)C(=O)N1` [GT-06774, 1-(5-((4-(2,6-dichlorophenyl)piperazin-1-yl)methyl)-1-oxoisoindolin-2-yl)dihydropyrimidine-2,4(1H,3H)-dione], the “IKZF3 substrate protein remaining %” value on IKZF3 is “A (0% ≤ substrate protein remaining % ≤80%)”. Further, at WEE1, the “WEE1 substrate protein remaining %” value is “B (80%< substrate protein remaining % ≤100%)”. Moreover, the “GSPT1 substrate protein remaining %” value at GSPT1 is on record as “A (0% ≤ substrate protein remaining % ≤80%)”. For the same compound, the “IKZF2 substrate protein remaining %” value on IKZF2 is on record as “A (0% ≤ substrate protein remaining % ≤80%)”. Further, the “IKZF1 substrate protein remaining %” value on IKZF1 was “B (80%< substrate protein remaining % ≤100%)”. The “CK1α substrate protein remaining %” value at CK1α is “A (0% ≤ substrate protein remaining % ≤80%)”.

Regarding `O=C1CCN(N2Cc3cc(CN4CCN(c5ccc(Cl)c(Cl)c5)CC4)ccc3C2=O)C(=O)N1` [GT-06775, 1-(5-((4-(3,4-dichlorophenyl)piperazin-1-yl)methyl)-1-oxoisoindolin-2-yl)dihydropyrimidine-2,4(1H,3H)-dione], on IKZF3, the “IKZF3 substrate protein remaining %” value is reported as “A (0% ≤ substrate protein remaining % ≤80%)”. Moreover, the “WEE1 substrate protein remaining %” value on WEE1 was “B (80%< substrate protein remaining % ≤100%)”. The “GSPT1 substrate protein remaining %” value at GSPT1 was “A (0% ≤ substrate protein remaining % ≤80%)”. Moreover, on IKZF2, the “IKZF2 substrate protein remaining %” value is recorded as “A (0% ≤ substrate protein remaining % ≤80%)”. For the same compound, the “IKZF1 substrate protein remaining %” value on IKZF1 was “B (80%< substrate protein remaining % ≤100%)”. The “CK1α substrate protein remaining %” value at CK1α is reported as “A (0% ≤ substrate protein remaining % ≤80%)”.

Take `O=C1CCN(N2Cc3cc(CN4CCN(c5ccc(F)cc5F)CC4)ccc3C2=O)C(=O)N1` [GT-06778, 1-(5-((4-(2,4-difluorophenyl)piperazin-1-yl)methyl)-1-oxoisoindolin-2-yl)dihydropyrimidine-2,4(1H,3H)-dione]: the “IKZF3 substrate protein remaining %” value at IKZF3 is recorded as “B (80%< substrate protein remaining % ≤100%)”. In addition, the “WEE1 substrate protein remaining %” value on WEE1 was “B (80%< substrate protein remaining % ≤100%)”. For the same compound, the “GSPT1 substrate protein remaining %” value at GSPT1 is on record as “A (0% ≤ substrate protein remaining % ≤80%)”. For the same compound, the “IKZF2 substrate protein remaining %” value on IKZF2 was “B (80%< substrate protein remaining % ≤100%)”. Also, on IKZF1, the “IKZF1 substrate protein remaining %” value is recorded as “B (80%< substrate protein remaining % ≤100%)”. For the same compound, the “CK1α substrate protein remaining %” value on CK1α was “A (0% ≤ substrate protein remaining % ≤80%)”.
